Laboratory results from patent publication US7544497B2, “Compositions for manipulating the lifespan and stress response of cells and organisms” (President and Fellows of Harvard College, priority 2003, dated 2009).

Experiments:
rDNA silencing = assay: Ribosomal DNA silencing assay (URA3 reporter); assay type: cell-based, S. cerevisiae
Description: Ribosomal DNA silencing assays using the URA3 reporters were performed as previously described^26. Ribosomal DNA recombination frequencies were determined by plating W303AR cells^37 on YPD medium with low adenine/histidine and counting the fraction of half-red sectored colonies using Bio-Rad Quantity One software as previously described^35. At least 6000 cells were analyzed per experiment and all experiments were performed in triplicate. All strains were pre-grown for 15 hours with the relevant compound prior to plating.

D. melanogaster = D. melanogaster adult survival assay; assay type: in vivo
Description: Survival assays were conducted independently with adult D. melanogaster in two laboratories. In the first laboratory, all trials used an yw marked wild-type strain. […] Newly eclosed adults were placed in 1L demography cages with approximately 75 males and 75 females. Three to four replicate 1L demography cages were used for each treatment group in each trial. Every two days, dead flies were removed and scored, and food vials were replenished. Food vials contained cornmeal-sugar-yeast diet with SAF yeast as either 2% or 3% by weight. […] Fresh stock solutions and adult media were prepared weekly. In the second laboratory, lifespan trials were conducted with the wild type strain Canton-S, dSir2^4.5 and […], University of Oregon), […], Stockholm University, Sweden), and dSir2^KG00871 (Drosophila Stock Center, Bloomington, Ind.). Larvae for all tests were reared on standard cornmeal-sugar-yeast diet. […] In all trials, 20 males with 20 females were placed into each of 10 vials/treatment group. Every two days, flies were passed into new vials and dead flies were counted. […] Fresh stock solution and adult media was prepared weekly.

Human recombinant SIRT2 = molecular target: T1, Human recombinant SIRT2 (Homo sapiens, UniProt Q8IXJ6); assay: SIRT2 deacetylation assay (Fluor de Lys-SIRT2); assay type: biochemical; settings: 25 μM Fluor de Lys-SIRT2, 25 μM NAD+, 20 minutes, 37° C.
T1 sequence (Q8IXJ6 1-389): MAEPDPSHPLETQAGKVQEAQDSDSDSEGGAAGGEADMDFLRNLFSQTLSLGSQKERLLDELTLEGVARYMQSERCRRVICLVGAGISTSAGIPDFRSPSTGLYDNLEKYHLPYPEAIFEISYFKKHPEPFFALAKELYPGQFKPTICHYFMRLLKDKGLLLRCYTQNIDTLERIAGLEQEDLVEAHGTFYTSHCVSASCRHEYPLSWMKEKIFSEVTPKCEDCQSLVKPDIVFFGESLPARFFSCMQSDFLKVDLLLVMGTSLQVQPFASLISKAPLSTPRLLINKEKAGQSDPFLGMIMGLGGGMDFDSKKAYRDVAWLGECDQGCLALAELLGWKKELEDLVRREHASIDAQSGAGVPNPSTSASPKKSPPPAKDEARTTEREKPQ
Excerpt: Yeast Sir2 and human SIRT1 are very homologous and differ from human SIRT2 by the addition of an N-terminal domain that is absent in SIRT2. […] Thus, based on the difference in structure of SIRT1 and SIRT2, i.e., the absence of an N-terminal domain (see FIG. 8), it is believed that the N-terminal domain of SIRT1 and Sir2 is necessary for activation by the compounds described herein. In particular, it is likely that the activator compounds described herein interact with the N-terminal portion of sirtuins. The N-terminal portion of SIRT1 that is necessary for the action of the compounds is from about amino acid 1 to about amino acid 176, and that of Sir2 is from about amino acid 1 to about amino acid 175.

[1] = D. melanogaster body mass; assay type: in vivo; settings: 10 μM, 15% SY diet
Description: Feeding rate was measured in yw females with the crop-filling assay^27. […] The presence of dye-marked food in the crop was scored in sets of 20 females across five 5-minute intervals. […] Males and females were weighed daily.

Structure (SMILES): Oc1ccc(/C=C/c2cc(O)cc(O)c2)cc1 [Resveratrol, 3,5,4′-Trihydroxy-trans-stilbene]
- effect on rDNA silencing (rDNA silencing): only minor effects
- lifespan increase (up to) (D. melanogaster; Canton-S/dSir2^KG0087): up to 17%
- lifespan in flies lacking or severely decreased in dSir2 (D. melanogaster; dSir2^4.5/dSir2^5.26 or dSir2^17/dSir2^KG00871, 100 μM): failed to extend lifespan
- longevity increase in flies homozygous for a hypomorphic dSir2 allele (D. melanogaster; dSir2^KG0087/dSir2^KG0087): small but statistically significant amount
- longevity on restricted diet (D. melanogaster; restricted diet): neither resveratrol nor fisetin further increased longevity
- lifespan extension (up to) (D. melanogaster; wild type, males and females, independent tests): up to 29%
- effect of increasing concentrations on SIRT2 activity (Human recombinant SIRT2): decrease
- body weight [1]: normal weight
